Where a name gives a salt, the structure may show the parent alone.
Columns and labels:
Assay type in all cases: biochemical
PDEV [1] = target: PDEV (Oryctolagus cuniculus, UniProt G1SX67); assay: PDE assay: inhibition of PDEV isolated from rabbit tissue; settings: PDEV inhibitory activity, rabbit tissue (footnote a)
Protocol: (§1) Briefly, rabbit or human tissues were homogenized in an ice-cold buffer solution containing 20 mM HEPES (pH 7.2), 0.25M sucrose, 1 mM EDTA, and 1 mM phenylmethylsulphonyl fluoride (PMSF). The homogenates were centrifuged at 100,000 g for 60 minutes at 4° C. The supernatant was filtered through […] filter and loaded on a Pharmacia Mono Q anion exchange column (1 ml bed volume) that was equilibrated with 20 mM HEPES, 1 mM EDTA and 0.5 mM PMSF. After washing out unbound proteins, the enzymes were eluted with a linear gradient of 100-600 mM NaCl in the same buffer (35 to 50 ml total, depending on the tissue. Enzymes from the skeletal muscle, corpus cavernosum, retina, heart and platelet were eluted with 35, 40, 45, 50, and 50 ml respectively.) The column was run at a flow rate of 1 ml/min and 1 ml fractions were collected. The fractions comprising various PDE activities were pooled separately and used in later studies.
(§2) The assays were adapted to a 96-well format. The enzyme was assayed in 5 mM MgCl2, 15 mM Tris HCl (pH 7.4), 0.5 mg/ml bovine serum albumin, 1 μM cGMP or cAMP, 0.1 μCi [^3H]-cGMP or [^3H]-cAMP, and 2-10 μl of column elution. The total volume of the assay was 100 μl. The reaction mixture was incubated at 30° C. for 30 minutes. The reaction was stopped by boiling for 1 minute and then cooled down on ice. The resulting [^3H]5′-mononucleotides were further converted to uncharged [^3H]-nucleosides by adding 25 μl 1 mg/ml snake venom (Ophiophagus hannah) and incubating at 30° C. for 10 minute. The reaction was stopped by the addition of 1 ml Bio-Rad AG1-X2 resin slurry (1:3). All the charged nucleotides were bound by the resin and only uncharged [^3H]-nucleosides remained in the supernatant after centrifuging. An aliquot of 200 μl was taken and counted by liquid scintillation. PDE activity was expressed as pmol cyclic nucleotide hydrolyzed/min/ml of enzyme preparation.
(§3) Inhibitor studies were carried out in assay buffer with a final concentration of 10% DMSO.
(§4) The % inhibition of the maximum substrate conversion (by the enzyme in the absence of inhibitor) was calculated for each test compound concentration. Using GraphPad Prism's nonlinear regression analysis (sigmoidal dose response), the % inhibition vs log of the test compound concentration was plotted to determine the IC50. Under conditions where substrate concentration <<Km of the enzyme (Km=substrate concentration at which half of the maximal velocity of the enzyme is achieved), Ki is equivalent to the IC50 value.
(§5) Unless otherwise noted, PDEV inhibitory activities were measured using human tissue. The abbreviation “stereo” refers to the stereogenic configuration, the abbreviation “Rac” shall denote a racemic mixture.

PDEV [2] = target: T1, PDEV (Homo sapiens, UniProt O76074); assay: In vitro determination of Ki for phosphodiesterase inhibitors; settings: human tissue; given as 'Ki ='
T1 construct: PDEV was isolated from rabbit and human tissues according to the protocol described by Boolell et al; from tissue; host or cells: human tissue, homogenate supernatant fractionated on Mono Q
Protocol: The assays were adapted to a 96-well format. Phosphodiesterase was assayed in 5 mM MgCl2, 15 mM Tris HCl (pH 7.4), 0.5 mg/ml bovine serum albumin, 30 nM ^3H-cGMP and test compound at various concentrations. The amount of enzyme used for each reaction was such that less than 15% of the initial substrate was converted during the assay period. For all measurements, the test compound was dissolved and diluted in 100% DMSO (2% DMSO in assay). The total volume of the assay was 100 μl. The reaction mixture was incubated at 30° C. for 90 minutes. The reaction was stopped by boiling for 1 minute and then immediately cooled by transfer to an ice bath. To each well was then added 25 μl 1 mg/ml snake venom (Ophiophagus hannah) and the reaction mixture incubating at 30° C. for 10 minute. The reaction was stopped by the addition of 1 ml Bio-Rad AG1-X2 resin slurry (1:3). An aliquot of 200 μl was taken and counted by liquid scintillation.
as §4, §5

PDEV [3] = target: T1, PDEV; assay: PDE assay: inhibition of PDEV isolated from human tissue; settings: PDEV inhibitory activity
Protocol: as §1, §2, §3, §4, §5

| Compound | IC50 (PDEV [1]) [nM] | IC50 (PDEV [3]) [nM] | other results |
| --- | --- | --- | --- |
| O=C(OCc1ccccc1)N1Cc2c(nc3ccccc3c2O)C1c1ccc2c(c1)OCO2 (racemic) [Compound 27, 1,2,3,4-Tetrahydro-2-(benzyloxycarbonyl)-3-(3,4-methylenedioxyphenyl)-9H-pyrrolo-[3,4-b]quinolin-9-one] | 3.4 |  |  |
| O=c1c2c([nH]c3ccccc13)C(c1ccc3c(c1)CCO3)N(c1ncc(-c3cccc[n+]3[O-])cn1)C2 (centres unmarked) [Compound 125, 3-(2,3-Dihydro-benzofuran-5-yl)-2-[5-(1-oxy-pyridin-2-yl)-pyrimidin-2-yl]-1,2,3,4-tetrahydro-pyrrolo[3,4-b]quinolin-9-one] |  |  | Ki (PDEV [2]): 0.144 nM |
| Oc1c2c(nc3ccccc13)C(c1ccc3c(c1)CCO3)N(c1ccc(-c3ccccn3)cn1)C2 (racemic) [Compound 134, 2-[2,3′]Bipyridinyl-6′-yl-3-(2,3-dihydro-benzofuran-5-yl)-1,2,3,4-tetrahydro-pyrrolo[3,4-b]quinolin-9-one] |  |  | Ki (PDEV [2]): 1.1 nM |
| O=c1c2c([nH]c3ccccc13)C(c1ccc3c(c1)CCO3)N(c1ccccn1)C2 (centres unmarked) [Compound 136, 3-(2,3-Dihydro-benzofuran-5-yl)-2-pyridin-2-yl-1,2,3,4-tetrahydro-pyrrolo[3,4-b]quinolin-9-one] |  |  | Ki (PDEV [2]): 0.18 nM |
| (E)-4-[3-Oxo-3-[1,2,3,4-tetrahydro-3-(3,4-methylenedioxyphenyl)-9-methoxy-9H-pyrrolo-[3,4-b]quinolin-2-yl]-1-propenyl]benzoic acid, methyl ester [Compound 64] | 113 |  |  |
| Oc1c2c(nc3ccccc13)C(c1ccc3c(c1)OCO3)N(c1ccc(-n3ccnc3)cc1)C2 (racemic) [Compound 133, 3-Benzo[1,3]dioxol-5-yl-2-(4-imidazol-1-yl-phenyl)-1,2,3,4-tetrahydro-pyrrolo[3,4-b]quinolin-9-one] |  |  | Ki (PDEV [2]): 1.75 nM |
| CC(C)(C)OC(=O)N1Cc2c([nH]c3ccccc3c2=O)C1c1ccc2c(c1)OCO2 (racemic) [Compound 3, 1,2,3,4-Tetrahydro-2-(tert-butoxycarbonyl)-3-(3,4-methylenedioxyphenyl)-9H-pyrrolo-[3,4-b]quinolin-9-one] | 340 |  |  |
| O=C(c1cc2ccc(OCCN3CCOCC3)cc2o1)N1Cc2c([nH]c3ccccc3c2=O)C1c1ccc2c(c1)OCO2 (racemic) [Compound 49, hydrochloride salt] | 1.13 |  |  |
| O=C(c1ccc(-c2ccc(O)cc2)o1)N1Cc2c(nc3ccccc3c2O)C1c1ccc2c(c1)OCO2 (racemic) [Compound 22, 1,2,3,4-Tetrahydro-3-(3,4-methylenedioxyphenyl)-2-[5-(4-hydroxyphenyl)furoyl]-9H-pyrrolo[3,4-b]-quinolin-9-one] |  | 0.86 |  |
| Oc1c2c(nc3ccccc13)C(c1ccc3c(c1)CCO3)N(c1ncccn1)C2 (racemic) [Compound 123, 3-(2,3-Dihydro-benzofuran-5-yl)-2-pyrimidin-2-yl-1,2,3,4-tetrahydro-pyrrolo[3,4-b]quinolin-9-one] |  | 12.8 |  |
| COC(=O)c1ccc(/C=C/C(=O)N2Cc3c(n(C)c4ccccc4c3=O)C2c2ccc3c(c2)OCO3)cc1 (racemic) [Compound 63, (E)-4-[3-Oxo-3-[1,2,3,4-tetrahydro-3-(3,4-methylenedioxyphenyl)-4-methyl-9H-pyrrolo-[3,4-b]quinolin-9-one-2-yl]-1-propenyl]benzoic acid, methyl ester] | 511 |  |  |
| Oc1c2c(nc3ccccc13)C(c1ccc3c(c1)CCO3)N(c1ncc(Br)cn1)C2 (racemic) [Compound 74] |  | 1.9 |  |
| O=c1c2c([nH]c3ccccc13)C(c1ccc3c(c1)OCO3)N(c1ncc(-c3ccncc3)cn1)C2 (racemic) [Compound 99] |  | 0.84 |  |
| O=C(c1ccc(Br)o1)N1Cc2c(nc3ccccc3c2O)C1c1ccc2c(c1)OCO2 (racemic) [Compound 30, 1,2,3,4-Tetrahydro-3-(3,4-methylenedioxyphenyl)-2-(5-(2-bromo)-furoyl)-9H-pyrrolo[3,4-b]quinolin-9-one] | 5.2 |  |  |
| O=c1c2c([nH]c3ccccc13)C(c1ccc3c(c1)OCO3)N(Cc1ccccc1)C2 (racemic) [Compound 54, 1,2,3,4-Tetrahydro-2-benzyl-3-(3,4-methylenedioxyphenyl)-9H-pyrrolo-[3,4-b]quinolin-9-one] |  | 234 |  |
| Oc1c2c(nc3ccccc13)[C@@H](c1ccc3c(c1)CCO3)N(c1ncc(-c3ccccn3)cn1)C2 [Compound 76] |  | 0.23 |  |
| COc1ccc(-c2cnc(N3Cc4c([nH]c5ccccc5c4=O)C3c3ccc4c(c3)OCO4)nc2)cc1OC (racemic) [Compound 1, 1,2,3,4-Tetrahydro-2-[5-(3,4-dimethoxyphenyl)-pyrimidin-2-yl]-3-(3,4-methylenedioxyphenyl)-9H-pyrrolo-[3,4-b]quinolin-9-one] |  | 0.165 |  |
| Oc1c2c(nc3ccccc13)C(c1ccc3c(c1)OCO3)N(c1ncccn1)C2 (racemic) [Compound 11, 1,2,3,4-Tetrahydro-2-(pyrimidin-2-yl)-3-(3,4-methylenedioxyphenyl)-9H-pyrrolo-[3,4-b]quinolin-9-one] |  | 3.73 |  |
| Oc1c2c(nc3ccccc13)C(c1ccc3c(c1)OCO3)N(c1ncc(-c3cccnc3)cn1)C2 (racemic) [Compound 100] |  | 0.52 |  |
| O=c1c2c([nH]c3ccccc13)[C@@H](c1ccc3c(c1)OCO3)N(c1ccc(-c3cccc(C(F)(F)F)c3)o1)C2 [Compound 50, (R)-1,2,3,4-Tetrahydro-3-(3,4-methylenedioxyphenyl)-2-[5-(3-trifluoromethylphenyl)furo-2-yl]-9H-pyrrolo-[3,4-b]quinolin-9-one] | 0.61 |  |  |
| COc1ccc(-c2cnc(N3Cc4c([nH]c5ccccc5c4=O)[C@@H]3c3ccc4c(c3)OCO4)nc2)cc1OC [Compound 35, (S)-1,2,3,4-Tetrahydro-2-[5-(3,4-dimethoxyphenyl)-pyrimidin-2-yl]-3-(3,4-methylenedioxyphenyl)-9H-pyrrolo-[3,4-b]quinolin-9-one] | 1.42 |  |  |
| Cc1ccc(-c2cnc(N3Cc4c([nH]c5ccccc5c4=O)C3c3ccc4c(c3)OCO4)nc2)cc1 (racemic) [Compound 7, 1,2,3,4-Tetrahydro-2-[5-(4-methylphenyl)-pyrimidin-2-yl]-3-(3,4-methylenedioxyphenyl)-9H-pyrrolo-[3,4-b]quinolin-9-one] |  | 0.325 |  |
| O=C(c1ccc(-c2ccsc2)o1)N1Cc2c(nc3ccccc3c2O)C1c1ccc2c(c1)OCO2 (racemic) [Compound 112] |  | 0.699 |  |
| O=C(c1cc2ccc(O)cc2o1)N1Cc2c(nc3ccccc3c2O)C1c1ccc2c(c1)OCO2 (racemic) [Compound 9, 1,2,3,4-Tetrahydro-3-(3,4-methylenedioxyphenyl)-2-(6-hydroxy-2-benzo-furoyl)-9H-pyrrolo[3,4-b]quinolin-9-one] |  | 0.46 |  |
| COC(=O)c1ccc(-c2ccc(C(=O)N3Cc4c([nH]c5ccccc5c4=O)C3c3ccc4c(c3)OCO4)o2)cc1 (centres unmarked) [Compound 24, 1,2,3,4-Tetrahydro-3-(3,4-methylenedioxyphenyl)-2-[5-(4-methoxycarbonylphenyl)-furoyl]-9H-pyrrolo[3.4-b]-quinolin-9-one] |  | 1.21 |  |
| O=C(OCc1ccncc1)N1Cc2c([nH]c3ccccc3c2=O)C1c1ccc2c(c1)CCO2 (racemic) [Compound 53, 1,2,3,4-Tetrahydro-2-[(4-pyridinyl)methyloxycarbonyl]-3-(2,3-dihydrobenzofuran-5-yl)-9H-pyrrolo-[3,4-b]quinolin-9-one] | 5.34 |  |  |
